Measurements from US7776826B2, “Method for fostering bone formation and preservation” (Unigene Laboratories, Inc., priority 2004, dated 2010).

What was measured:
Format in all cases: in vivo, rat
Male Sprague-Dawley rats [1] = test: PIXIMUS (DEXA) analysis of femur distal marrow cavity BMD after left femur bone marrow ablation (bmx), Groups A-J
Source text: FIG. 1 is a graphical representation of the results of a PIXIMUS analysis of the femur distal marrow cavity bone mineral density (“BMD”) of groups of laboratory rats which were sacrificed at one-week intervals during a three-week test regimen. The PIXIMUS analyzer is available from Lunar Corp., Palo Alto, Calif. and provides Dual Energy X-Ray Absorptiometry (“DEXA”) data for small animals such as mice and rats. Male Sprague-Dawley rats (5 animals per group) aged 9 weeks were sacrificed and tested at time 0 and after 1, 2 and 3 weeks. The various groups were subjected to the following treatment modalities: Group A—left femur control; Group B—left femur sham; Group C—mechanical bone marrow ablation (bmx) to alter the contents of the bone marrow cavity of the left femur; Group D—mechanical bone marrow ablation treatment (bmx) of the left femur, coupled with the administration of an amidated parathyroid hormone truncate (PTH[1-34]-NH2) during days 1-21; and Group E—a right (non-bmx) femur BMD measurement of rats treated during days 1-21 with an amidated parathyroid hormone truncate (PTH[1-34]-NH2) wherein the rat's left femur had undergone a bone ablation (bmx) treatment;
FIG. 2 is a graphical representation of the results of a PIXIMUS analysis of the femur distal marrow cavity BMD of a second set of groups of male Sprague-Dawley rats (5 animals per group) aged 9 weeks which were sacrificed and tested at time 0 and after 1, 2 and 3 weeks. The various groups were subjected to the following treatment modalities: Group F—left femur control; Group G—left femur sham; Group H—mechanical bone marrow ablation (bmx) to alter the contents of the bone marrow cavity of the left femur; Group I—mechanical bone marrow ablation (bmx) of the left femur, coupled with administration of an amidated parathyroid hormone truncate (PTH[1-34]-NH2) during days 1-7, followed by the administration of a salmon calcitonin (sCT) antiresorptive agent during days 7-21; and Group J—a right femur BMD measurement of rats treated with an amidated parathyroid hormone truncate (PTH[1-34]-NH2) wherein the rat's left femur had undergone a bone marrow ablation (bmx) treatment;
Absent the bone anabolic agent, the initial burst of bone formation is quickly followed by the resorption of newly formed bone by osteoclasts (see, e.g., the Group C curve in FIG. 1). […] Table 1 (below) sets forth the values upon which the curves obtained with Groups A-E in FIG. 1 are based. As no readings were taken for the Control (Group A) and Sham (Group B) groups at Week 1 and Week 2, these values were estimated for purposes of preparing the curves for these two Groups. Table 1, moreover, provides the standard deviations for the values obtained in each Group, which standard deviations are also indicated in FIG. 1.
As indicated herein the bmx treatment was always administered to the rats' left femur and never to the right femur. The non-ablated contralateral femur was analyzed, however, throughout the testing protocols described herein as a control used for detecting the systemic effect of the bone anabolic agent. That is, the results achieved with the contralateral (right) femur permit one to exclude the effect attributable to the bmx treatment. Moreover, analysis of the rats' right femur control also enabled the inventors to determine whether the bmx treatment of the left femur had any effect on other skeletal sites located within the body of the rat.
FIG. 2 is provided to illustrate, inter alia, the further beneficial effect achieved due to the overlapping (i.e., with PTH administration) or subsequent administration of the antiresorptive agent salmon calcitonin (sCT). First, a comparison of the curves obtained with Group H (bmx alone) and Group J (PTH+sCT with no bmx) to that obtained with Group I (bmx PTH+sCT) provide still further evidence of the synergistic effect attributable to the use of the method of the invention. […]

Male Sprague-Dawley rats [2] = test: MicroCT analysis of femoral shafts, Groups K-R; details: left femoral shaft with bmx, agent for 21 days
Source text: FIG. 13(a-b) illustrate the results of Micro Computerized Tomography (MicroCT) analysis of the left (ablated) and right (non-ablated) femoral shafts of the rats of Groups K-R. The abbreviations are the same as those used in FIGS. 10-12;
FIG. 13 (a-b) provides a comparison between Micro Computerized Tomography (MicroCT) analyses of bone samples taken from the left femoral shaft (FIG. 13a) and the right femoral shaft (FIG. 13b) of rats treated in the manner indicated in FIGS. 10-12. As in the other cases discussed above, the most significant amount of new bone growth is found in the shaft of the left femur, since this shaft was subjected to the bmx treatment. […] In contrast, the right femoral shaft sections show very little or no increase in bone growth at all.

Male Sprague-Dawley rats [3] = test: High resolution radiograms of left and right femurs, Groups K-R; details: left femur with bmx, agent daily for 21 days
Source text: FIG. 10 (a-b) presents high resolution radiograms of the left and right femurs, respectively, from an additional series of experiments on additional groups of male Sprague-Dawley rats (6 rats per group) aged 9 weeks which were sacrificed and tested after 21 days (3 weeks). The various groups were subjected to the following treatment modalities: Group K—control day 0; Group L—control day 21; Group M—bone marrow ablation (bmx) day 0; Group N—sham day 21; Group O— bmx+phosphate buffer saline (PBS) daily for 21 days; Group P—bmx+PTH[1-34]-NH2 daily for 21 days; Group Q—bmx+ parathyroid hormone related peptide (PTHRP) daily for 21 days; and Group R—bmx+rat α-calcitonin gene related peptide (CGRP) daily for 21 days;
FIG. 10 (a-b) presents a set of high resolution radiograms of the entire left and right femurs of additional (to those described above) groups of rats, injected daily for a designated term with one or more of the following agents: phosphate buffer saline (PBS); parathyroid hormone (PTH[1-34]-NH2); parathyroid hormone related peptide (PTHrP); and calcitonin gene related peptide (CGRP). The rats chosen for test subjects were subjected to the following treatment modalities (as indicated in the lower left corner of each of the radiograms): control day 0; control day 21; bone marrow ablation (bmx) day 0; sham day 21; bmx followed by injection of PBS buffer daily for 21 days; bmx followed by injection of PTH daily for 21 days; bmx followed by injection of PTHrP daily for 21 days; and bmx followed by injection of CGRP daily for 21 days.
As shown by FIG. 10(a), the best results, i.e., the greatest bone density, was obtained in the left femur wherein the effect of the bone marrow ablation overlapped with that attributable to the administration of the various anabolic agents. As in the case of FIG. 3, the lighter, i.e, more radio-opaque, areas indicate the locations of the greatest additional bone growth.

Substance	bone formation / resorption by DEXA BMD curves, in words (Male Sprague-Dawley rats [1]; left femur with bmx)	new bone growth in MicroCT, in words (Male Sprague-Dawley rats [2])	BMD (DEXA) (Male Sprague-Dawley rats [1]; left femur with bmx, Week 0)	BMD (DEXA) (Male Sprague-Dawley rats [1]; left femur with bmx, Week 1)	BMD (DEXA) (Male Sprague-Dawley rats [1]; left femur with bmx, Week 2)	BMD (DEXA) (Male Sprague-Dawley rats [1]; left femur with bmx, Week 3)	BMD (DEXA) (Male Sprague-Dawley rats [1]; right (non-bmx) femur, Week 0)	BMD (DEXA) (Male Sprague-Dawley rats [1]; right (non-bmx) femur, Week 1)	BMD (DEXA) (Male Sprague-Dawley rats [1]; right (non-bmx) femur, Week 2)	BMD (DEXA) (Male Sprague-Dawley rats [1]; right (non-bmx) femur, Week 3)	bone density on radiograms, in words (Male Sprague-Dawley rats [3])
salmon calcitonin [CT, reference compound]	significantly diminishes the proportion of the newly formed bone which is resorbed										
PTH[1-34]-NH2	unexpected increase in degree, speed and longevity of bone formation	significant degree of improvement	0.096 ± .007 gm/cm^2	0.166 ± .004 gm/cm^2	0.200 ± .030 gm/cm^2	0.190 ± .008 gm/cm^2	0.097 ± .008 gm/cm^2	0.124 ± .007 gm/cm^2	0.141 ± .007 gm/cm^2	0.154 ± .007 gm/cm^2	best results
